Assay results from patent publication US20240158368A1, “Pyrrolidine Main Protease Inhibitors as Antiviral Agents” (AbbVie Inc., priority 2022, published 2024).

Experiments:
SARS-CoV-2 Mpro = SARS-CoV-2 Mpro (Severe acute respiratory syndrome coronavirus 2 (2019-nCoV) (SARS-CoV-2), UniProt P0DTD1); assay type: biochemical
OC43 Mpro = OC43 Mpro (Human coronavirus OC43 (HCoV-OC43), UniProt P0C6X6); assay type: biochemical
229E virus = test: organism not typed; assay type: cell-based; details: Huh-7, read-out: Antiviral 229E EC50 (μM)
SARS-CoV-1 Mpro = SARS-CoV-1 Mpro (Severe acute respiratory syndrome coronavirus (SARS-CoV), UniProt P0C6X7); assay type: biochemical
[1] = system: SARS-CoV-2 (strain USA-WA1/2020); test: microbe, parasite or virus in culture; assay type: cell-based; details: Severe acute respiratory syndrome coronavirus 2; HeLa-ACE2 cells; read-out: Antiviral CoV-2 EC50
in vitro [2] = details: human, microsomes, pH 7.4
OC43 virus = test: microbe, parasite or virus in culture; assay type: cell-based; details: Betacoronavirus 1, OC43, Huh-7, read-out: Antiviral OC43 EC50 (μM)
MERS Mpro = MERS Mpro (Middle East respiratory syndrome-related coronavirus (isolate United Kingdom/H123990006/2012) (MERS-CoV) (Betacoronavirus England 1), UniProt K9N7C7); test: biochemical
MERS Mpro, sequence (K9N7C7 3248-3553 limits assumed): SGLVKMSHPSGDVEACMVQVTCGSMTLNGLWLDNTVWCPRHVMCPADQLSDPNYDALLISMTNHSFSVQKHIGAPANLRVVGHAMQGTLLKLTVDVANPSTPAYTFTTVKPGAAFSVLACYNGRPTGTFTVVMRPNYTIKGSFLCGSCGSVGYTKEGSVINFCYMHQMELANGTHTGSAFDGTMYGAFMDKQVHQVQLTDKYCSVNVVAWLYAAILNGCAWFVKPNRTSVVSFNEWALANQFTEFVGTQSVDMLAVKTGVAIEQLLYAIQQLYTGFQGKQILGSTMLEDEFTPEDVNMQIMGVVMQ

229E Mpro = 229E Mpro (Human coronavirus 229E (HCoV-229E), UniProt P0C6X1); assay type: biochemical
229E Mpro, sequence (P0C6X1 2966-3267 limits assumed): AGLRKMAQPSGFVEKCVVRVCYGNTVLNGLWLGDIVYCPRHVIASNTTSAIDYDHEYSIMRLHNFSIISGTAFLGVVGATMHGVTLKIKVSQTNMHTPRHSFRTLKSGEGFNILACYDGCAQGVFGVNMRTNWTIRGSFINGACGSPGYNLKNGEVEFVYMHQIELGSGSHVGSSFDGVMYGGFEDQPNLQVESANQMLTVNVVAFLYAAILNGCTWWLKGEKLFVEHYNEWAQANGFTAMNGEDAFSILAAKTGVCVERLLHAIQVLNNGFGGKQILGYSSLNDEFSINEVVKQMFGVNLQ

in vitro [3] = details: rat, microsomes, pH 7.4
in vitro [4] = details: PAMPA

OC43 Mpro, sequence (P0C6X6 3247-3549 limits assumed): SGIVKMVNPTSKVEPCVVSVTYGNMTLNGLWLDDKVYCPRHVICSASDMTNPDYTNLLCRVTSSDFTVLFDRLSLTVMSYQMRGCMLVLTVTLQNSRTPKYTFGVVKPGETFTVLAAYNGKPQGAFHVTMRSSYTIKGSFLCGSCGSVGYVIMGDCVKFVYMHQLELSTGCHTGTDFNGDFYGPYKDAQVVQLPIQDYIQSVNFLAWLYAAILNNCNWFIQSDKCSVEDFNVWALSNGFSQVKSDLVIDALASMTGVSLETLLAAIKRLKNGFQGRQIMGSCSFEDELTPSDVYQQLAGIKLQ

Compound	EC50 (SARS-CoV-2 Mpro)	EC50 (OC43 Mpro)	EC50 (229E virus)	EC50 (SARS-CoV-1 Mpro)	EC50 [1]	CLint scaled (in vitro [2])	EC50 (OC43 virus)	EC50 (MERS Mpro)	EC50 (229E Mpro)	CLint scaled (in vitro [3])	Papp (in vitro [4])
N#Cc1cc(C(=O)N2CCOCC2)c(N2CC[C@@H](NC(=O)c3c(F)c(=O)[nH]c4c(F)cccc34)C2)c(C(F)(F)F)c1 [Compound 5]	0.48 nM	1.25 nM	0.039 µM	1.5 nM	10.2 nM	< 36.7 mL/min/kg	0.047 µM	1.26 nM	1.44 nM	< 60 mL/min/kg	7.23 ×10⁻⁶ cm/s
N#Cc1cc(C(=O)N2CCOCC2)c(N2CC[C@@H](NC(=O)c3cc(=O)[nH]c4c(F)c(F)ccc34)C2)c(C(F)(F)F)c1 [Compound 8]	0.43 nM	4.71 nM	0.25 µM	1.52 nM	19 nM	< 35 mL/min/kg	0.88 µM	1.48 nM	3.34 nM	< 60 mL/min/kg	5.11 ×10⁻⁶ cm/s
COc1cccc2[nH]c(=O)cc(C(=O)N[C@@H]3CCN(c4c(C(=O)N5CCOCC5)cc(C#N)cc4C(F)(F)F)C3)c12 [Compound 9]	0.47 nM	2.85 nM	0.11 µM	0.79 nM	319 nM	< 35 mL/min/kg	0.28 µM	1.8 nM	2.01 nM	< 58.3 mL/min/kg	0.34 ×10⁻⁶ cm/s
CN1CCN(C(=O)c2cc(C#N)cc(C(F)(F)F)c2N2CC[C@@H](NC(=O)c3cc(=O)[nH]c4c(F)cccc34)C2)CC1 [Compound 14]	0.46 nM	2 nM	0.15 µM	2.73 nM	12.9 nM	< 30 mL/min/kg	0.19 µM	1.33 nM	2.1 nM	56.7 mL/min/kg	2.73 ×10⁻⁶ cm/s
C[C@@H]1C[C@@H](NC(=O)c2cc(=O)[nH]c3c(F)c(F)ccc23)CN1c1c(C(=O)N2CCOCC2)cc(C#N)cc1C(F)(F)F [Compound 31]	0.5 nM	1.77 nM	0.073 µM		8.8 nM	91.7 mL/min/kg	0.141 µM	1.94 nM	2.81 nM	457 mL/min/kg	11.8 ×10⁻⁶ cm/s
N#Cc1cc(C(=O)N2CCOCC2)c(N2C[C@H](NC(=O)c3cc(=O)[nH]c4c(F)c(F)ccc34)CC2=O)c(C(F)(F)F)c1 [Compound 34]	1.12 nM	91.8 nM	3.37 µM	2.98 nM		< 26.7 mL/min/kg	7.32 µM	2.28 nM	41.7 nM	< 45 mL/min/kg	1.04 ×10⁻⁶ cm/s
O=C(N[C@@H]1CCN(c2c(C(=O)N3CCOCC3)cc(Cl)cc2C(F)(F)F)C1)c1cc(=O)[nH]c2c(F)cccc12 [Compound 36]	0.49 nM	0.84 nM	0.0578 µM	1.43 nM	9.1 nM	95 mL/min/kg	0.0487 µM	1.02 nM	2.39 nM	403 mL/min/kg	14.3 ×10⁻⁶ cm/s
Cc1cc(C(=O)N2CCOCC2)c(N2CC[C@@H](NC(=O)c3cc(=O)[nH]c4c(F)cccc34)C2)c(C2CC2)c1 [Compound 45]	0.42 nM	0.51 nM	0.0561 µM		18.6 nM	352 mL/min/kg	< 0.03 µM	0.7 nM	1.52 nM	942 mL/min/kg	14.7 ×10⁻⁶ cm/s
O=C(N[C@@H]1CCN(c2c(C(=O)N3CCOCC3)cc(F)cc2C2CC2)C1)c1cc(=O)[nH]c2c(F)cccc12 [Compound 46]	0.47 nM	0.81 nM	0.073 µM		20.9 nM	53.3 mL/min/kg	0.049 µM	1.75 nM	2.76 nM	897 mL/min/kg	15.2 ×10⁻⁶ cm/s
O=C(N[C@@H]1CCN(c2c(C(=O)N3CCOCC3)cc(Br)cc2C(F)(F)F)C1)c1c(F)c(=O)[nH]c2c(F)cccc12 [Compound 48]	0.43 nM	0.44 nM	0.044 µM	1.15 nM	5.8 nM	81.7 mL/min/kg	0.031 µM	0.9 nM	1.43 nM	210 mL/min/kg	17.9 ×10⁻⁶ cm/s
O=C(N[C@@H]1CCN(c2c(C(=O)N3CCOCC3)cc(Br)cc2C(F)(F)F)C1)c1cc(=O)[nH]c2c(F)cc(F)cc12 [Compound 49]	0.43 nM	1.64 nM	0.0959 µM	1.1 nM	11.3 nM	190 mL/min/kg	0.168 µM	0.95 nM	4.7 nM	573 mL/min/kg	15.6 ×10⁻⁶ cm/s
O=C(N[C@@H]1CCN(c2c(C(=O)N3CCOCC3)cc(Br)cc2C(F)(F)F)C1)c1c(F)c(=O)[nH]c2c(F)c(F)ccc12 [Compound 50]	0.5 nM	1.2 nM	0.319 µM	2.23 nM	11.4 nM	190 mL/min/kg	0.303 µM	1.9 nM	4.51 nM	165 mL/min/kg	16.2 ×10⁻⁶ cm/s
O=C(N[C@@H]1CCN(c2c(C(=O)N3CCOCC3)cc(Br)cc2C(F)(F)F)C1)c1cc(=O)[nH]c2c(F)c(F)ccc12 [Compound 51]	0.42 nM	1.1 nM	0.0475 µM	1.23 nM	16 nM	125 mL/min/kg	0.0584 µM	0.68 nM	3.56 nM	447 mL/min/kg	14.5 ×10⁻⁶ cm/s
O=C(N[C@@H]1CCN(c2c(C(=O)N3CCOCC3)cc(Br)cc2C(F)(F)F)C1)c1cc(=O)[nH]c2ccccc12 [Compound 56]	0.45 nM	0.74 nM	0.062 µM	4.49 nM	18.1 nM	157 mL/min/kg	0.014 µM	0.92 nM	1.83 nM	400 mL/min/kg	10.9 ×10⁻⁶ cm/s
COc1cc(F)cc2[nH]c(=O)cc(C(=O)N[C@@H]3CCN(c4c(C(=O)N5CCOCC5)cc(Br)cc4C(F)(F)F)C3)c12 [Compound 57]	0.42 nM	0.42 nM	0.083 µM			125 mL/min/kg	0.095 µM	0.53 nM	0.88 nM	437 mL/min/kg	4.09 ×10⁻⁶ cm/s
O=C(N[C@@H]1CCN(c2c(C(=O)N3CCOCC3)cc(Br)cc2C(F)(F)F)C1)c1cc(=O)[nH]c2c(Cl)cccc12 [Compound 58]	0.42 nM	5.84 nM	0.983 µM	1.07 nM		365 mL/min/kg	0.864 µM	0.91 nM	24.5 nM	1000 mL/min/kg	17.9 ×10⁻⁶ cm/s
O=C(N[C@@H]1CCN(c2c(C(=O)N3CCOCC3)cc(Br)cc2C(F)(F)F)C1)c1cc(C(F)F)[nH]c(=O)c1 [Compound 61]	1.93 nM	52.3 nM	63.1 µM	4.61 nM	413 nM	51.7 mL/min/kg	11.4 µM	3.25 nM	367 nM	83.3 mL/min/kg	15.7 ×10⁻⁶ cm/s
COc1cccc2[nH]c(=O)cc(C(=O)N[C@@H]3CCN(c4c(C5CC5)ccc(F)c4C(=O)N4CCOCC4)C3)c12 [Compound 78]	1.42 nM	1.45 nM	0.0481 µM		460 nM	188 mL/min/kg	0.0978 µM	2.31 nM	1.99 nM	418 mL/min/kg	2.46 ×10⁻⁶ cm/s
COc1cccc2[nH]c(=O)cc(C(=O)N[C@@H]3CCN(c4c(C(=O)N5CCOCC5)cc(F)cc4C4CC4)C3)c12 [Compound 79]	0.42 nM	0.76 nM	0.0284 µM		38.5 nM	31.7 mL/min/kg	0.02 µM	1.51 nM	2.42 nM	235 mL/min/kg	2.98 ×10⁻⁶ cm/s
COc1cccc2[nH]c(=O)cc(C(=O)N[C@@H]3CCN(c4c(C(=O)N5CCOCC5)cc(Cl)nc4C4CC4)C3)c12 [Compound 82]	0.99 nM	1.61 nM	1.17 µM		241 nM	56.7 mL/min/kg	0.083 µM	2.91 nM	13.5 nM	51.7 mL/min/kg	3.1 ×10⁻⁶ cm/s
Cc1cc(C(=O)N2CCOCC2)c(N2C[C@H](NC(=O)c3cc(=O)[nH]c4c(F)c(F)ccc34)C[C@H]2C)c(C2CC2)c1 [Compound 83]	0.42 nM	0.42 nM	0.029 µM	1.53 nM		1120 mL/min/kg	0.023 µM	1.39 nM	1.76 nM	1430 mL/min/kg	15.7 ×10⁻⁶ cm/s
COc1cccc2[nH]c(=O)cc(C(=O)N[C@H]3CN(c4c(C(=O)N5CCOCC5)cc(C)cc4C4CC4)C[C@@H]3OC)c12 [Compound 84]	0.6 nM	0.64 nM	0.141 µM		35.1 nM	120 mL/min/kg	0.019 µM	2.44 nM	2.35 nM	195 mL/min/kg	3.6 ×10⁻⁶ cm/s
